One test deals with E. cloacae B173. Briefly: MIC follow-on study. As to conditions: Enterobacter cloacae.
For another test, the system named is C. freundii B121. Kind of test: MIC follow-on study. As to conditions: Citrobacter freundii.
The subject of another test is E. coli UTI89. Kind of test: MIC follow-on study. The following applies: Escherichia coli.
Another test concerns K. pneumoniae ATCC 43816. Kind of test: MIC follow-on study. The following applies: Klebsiella pneumoniae, ATCC43816.
A further test has as its system A. baumannii NCTC 12156. Briefly: MIC follow-on study. The following applies: Acinetobacter baumannii, NCTC12156.
For a further test, the system named is E. coli ATCC25922. Kind of test: Minimum inhibitory concentration (MIC) assay. As to conditions: Escherichia coli.
The test system of the next test is P. mirabilis ATCC 43071. Kind of test: MIC follow-on study. The following applies: Proteus mirabilis, ATCC43071.
In a further test the test system is E. coli ATCC BAA-2469. Briefly: MIC follow-on study. The class given is cell-based. As to conditions: Escherichia coli, ATCCBAA2469. As for the experimental part:
(§1) Minimum inhibitory concentration (MIC) assays were carried out using E. coli strains: GKCW101; GKCW102 and ATCC25922 using the method described by Antimicrobial Agents and Chemotherapy December 2016 Volume 60 Number 12 pages 7372-7381 and CLSI, 2020. Performance standards for antimicrobial susceptibility testing. Clinical Lab Standards Institute.
(§2) As a follow-on study, the MIC of BCY13246 was measured against a range of bacterial targets and compared with the MIC for the constituent bicyclic peptide ([…]) and carrier peptide ([…]) alone along with existing anti-microbial agents meropenem and levofloxacin. […].

Another test relates to E. cloacae AR0038. Briefly: MIC follow-on study. Format: cell-based. As to conditions: Enterobacter cloacae. As for the experimental part:
as §1, §2

The next test deals with K. pneumoniae KPNIH1. Briefly: MIC follow-on study. As to conditions: Klebsiella pneumoniae. Format: cell-based. As for the experimental part: as §1, §2
Another test deals with E. cloacae KPC114. Kind of test: MIC follow-on study. The class given is cell-based. As to conditions: Enterobacter cloacae. As for the experimental part: as §1, §2
In another test the test system is P. aeruginosa NCTC 13437. Kind of test: MIC follow-on study. Format: cell-based. As to conditions: Pseudomonas aeruginosa, NCTC13437. The method, then:
as §1, §2

Another test has as its system C. freundii AR0116. Briefly: MIC follow-on study. Format: cell-based. The following applies: Citrobacter freundii. As for the experimental part: as §1, §2
The subject of another test is P. mirabilis AR159. Kind of test: MIC follow-on study. The following applies: Proteus mirabilis. The class given is cell-based. The method, then:
as §1, §2

The next test deals with E. coli NCTC 13441. Kind of test: MIC follow-on study. Format: cell-based. As to conditions: Escherichia coli, NCTC13441. The method, then:
as §1, §2

In another test the test system is A. baumannii AR0275. Briefly: MIC follow-on study. Format: cell-based. The following applies: Acinetobacter baumannii. As for the experimental part:
as §1, §2

The test system of another test is E. cloacae AR0032. Kind of test: MIC follow-on study. The class given is cell-based. The following applies: Enterobacter cloacae. As for the experimental part: as §1, §2
The subject of test [1] is K. pneumoniae ATCC 700603. Briefly: MIC follow-on study. Format: cell-based. The following applies: Klebsiella pneumoniae, ATCC700603. The method, then:
as §1, §2

A further test relates to P. aeruginosa ATCC 27853. Kind of test: MIC follow-on study. The following applies: Pseudomonas aeruginosa, ATCC27853.
Another test concerns K. pneumoniae B454. Kind of test: MIC follow-on study. As to conditions: Klebsiella pneumoniae.

≈ marks a conversion by molar mass, not a printed value.

By MIC is commonly meant the lowest concentration found to suppress growth. Higher therefore signals weaker potency. Take `C[C@@H](O)[C@H]1C(=O)N2C(C(=O)O)=C(S[C@@H]3CN[C@H](C(=O)N(C)C)C3)[C@H](C)[C@H]12` [Meropenem, meropenem]: the minimum inhibitory concentration (MIC) turned out to be 0.03 µg/mL (≈ 0.0782 µM) in the test with E. cloacae B173; 0.03 µg/mL (≈ 0.0782 µM) in the test on C. freundii B121; 0.016 µg/mL (≈ 0.0417 µM) with E. coli UTI89; 0.03 µg/mL (≈ 0.0782 µM) in the test on K. pneumoniae ATCC 43816; 1 µg/mL (≈ 2.61 µM) against A. baumannii NCTC 12156; 0.016 µg/mL (≈ 0.0417 µM) in the test with E. coli ATCC25922. The MIC in the test with P. mirabilis ATCC 43071 is 0.06 µg/mL (≈ 0.156 µM); with E. coli ATCC BAA-2469 it was above 2 µg/mL; against E. cloacae AR0038, above 2 µg/mL; with K. pneumoniae KPNIH1, above 2 µg/mL; against E. cloacae KPC114, above 2 µg/mL; against P. aeruginosa NCTC 13437 it was above 2 µg/mL. Also, the MIC with C. freundii AR0116 was above 2 µg/mL; against P. mirabilis AR159 it was above 2 µg/mL; with E. coli NCTC 13441, 0.016 µg/mL (≈ 0.0417 µM); against A. baumannii AR0275, above 2 µg/mL; against E. cloacae AR0032, 0.25 µg/mL (≈ 0.652 µM); in test [1], 0.03 µg/mL (≈ 0.0782 µM). For the same molecule, the MIC worked out at 0.5 µg/mL (≈ 1.3 µM) against P. aeruginosa ATCC 27853 and 0.03 µg/mL (≈ 0.0782 µM) in the test with K. pneumoniae B454.

Consider `C[C@H]1COc2c(N3CCN(C)CC3)c(F)cc3c(=O)c(C(=O)O)cn1c23` [Levofloxacin, levofloxacin], for which the minimum inhibitory concentration (MIC) against E. cloacae B173 came out at 0.03 µg/mL (≈ 0.083 µM); in the test on C. freundii B121, 0.25 µg/mL (≈ 0.692 µM); against E. coli UTI89, 0.03 µg/mL (≈ 0.083 µM); in the test on K. pneumoniae ATCC 43816 it was 0.06 µg/mL (≈ 0.166 µM); with A. baumannii NCTC 12156, 0.25 µg/mL (≈ 0.692 µM); against E. coli ATCC25922, 0.016 µg/mL (≈ 0.0443 µM). The MIC against P. mirabilis ATCC 43071 is 0.06 µg/mL (≈ 0.166 µM); in the test with E. coli ATCC BAA-2469, above 2 µg/mL; in the test on E. cloacae AR0038 it was above 2 µg/mL; in the test on K. pneumoniae KPNIH1, above 2 µg/mL; in the test on E. cloacae KPC114 it was 0.5 µg/mL (≈ 1.38 µM); in the test with C. freundii AR0116, above 2 µg/mL. In addition, the MIC with P. mirabilis AR159 is 2 µg/mL (≈ 5.53 µM); against E. coli NCTC 13441, above 2 µg/mL; with A. baumannii AR0275 it was above 2 µg/mL; in the test on E. cloacae AR0032, 0.5 µg/mL (≈ 1.38 µM); in test [1], 0.5 µg/mL (≈ 1.38 µM); against K. pneumoniae B454 it was above 2 µg/mL.
